Data published in patent US4605744A, “Imidazole derivatives” (Hoffmann-La Roche Inc., priority 1985, dated 1986).
Where a name gives a salt, the structure may show the parent alone. Read-outs that look alike come from different tables or passages of the source.

Key:
Assay type in all cases: cell-based
E. coli 257 = assay: In vitro antibacterial activity (MIC, Mueller-Hinton broth)
Method in brief: (§1)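 Broth microdilution in Mueller-Hinton broth, drug range 128 to 0.008 μg/ml; each well inoculated with 1.5 μl of a 10^-2 dilution of overnight culture. Sealed trays incubated overnight at 37° C. MIC is the lowest concentration showing no visible growth.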

C. diversus CDC 1663-72 = assay: In vitro antibacterial activity (MIC); conditions: Citrobacter koseri, CDC166372; C. diversus CDC 1663-72; read-out: MIC
Method in brief: as §1

C. freundii 8ASM = assay: In vitro antibacterial activity (MIC); conditions: Citrobacter freundii, 8ASM, C. freundii 8ASM; read-out: MIC
Method in brief: as §1

C. freundii CDC6 = assay: In vitro antibacterial activity (MIC); conditions: Citrobacter freundii, CDC6, C. freundii CDC6; read-out: MIC
Method in brief: as §1

E. aerogenes 503-478 = assay: In vitro antibacterial activity (MIC); conditions: Klebsiella aerogenes, 503478, E. aerogenes 503-478; read-out: MIC
Method in brief: as §1

E. aerogenes 83 = assay: In vitro antibacterial activity (MIC); conditions: Klebsiella aerogenes, 83, E. aerogenes 83; read-out: MIC
Method in brief: as §1

E. cloacae 214 = assay: In vitro antibacterial activity (MIC); conditions: Enterobacter cloacae, 214, E. cloacae 214; read-out: MIC
Method in brief: as §1

E. cloacae 24 = assay: In vitro antibacterial activity (MIC); conditions: Enterobacter cloacae, 24, E. cloacae 24; read-out: MIC
Method in brief: as §1

E. cloacae 5699 = assay: In vitro antibacterial activity (MIC); conditions: Enterobacter cloacae, 5699, E. cloacae 5699; read-out: MIC
Method in brief: as §1

E. cloacae 9295 = assay: In vitro antibacterial activity (MIC); conditions: Enterobacter cloacae, 9295, E. cloacae 9295; read-out: MIC
Method in brief: as §1

E. cloacae 9570A = assay: In vitro antibacterial activity (MIC); conditions: Enterobacter cloacae, read-out: MIC
Method in brief: as §1

E. coli 387-1 = assay: In vitro antibacterial activity (MIC)
Method in brief: as §1

E. coli 48 = assay: In vitro antibacterial activity (MIC); conditions: Escherichia coli, 48, E. coli 48; read-out: MIC
Method in brief: as §1

E. coli 4 = assay: In vitro antibacterial activity (MIC); conditions: Escherichia coli, 4, E. coli 4; read-out: MIC
Method in brief: as §1

E. coli 5152 = assay: In vitro antibacterial activity (MIC)
Method in brief: as §1

K. pneumoniae 35 = assay: In vitro antibacterial activity (MIC)
Method in brief: as §1

K. pneumoniae 4964 = assay: In vitro antibacterial activity (MIC)
Method in brief: as §1

K. pneumoniae 503-994 = assay: In vitro antibacterial activity (MIC); conditions: Klebsiella pneumoniae, 503994, K. pneumoniae 503-994; read-out: MIC
Method in brief: as §1

K. pneumoniae 5096 = assay: In vitro antibacterial activity (MIC); conditions: Klebsiella pneumoniae; K. pneumoniae 5096; read-out: MIC
Method in brief: as §1

K. pneumoniae HE7 = assay: In vitro antibacterial activity (MIC); conditions: Klebsiella pneumoniae; K. pneumoniae HE7; read-out: MIC
Method in brief: as §1

P. aeruginosa 503-56 = assay: In vitro antibacterial activity (MIC); conditions: Pseudomonas aeruginosa, 50356, P. aeruginosa 503-56
Method in brief: as §1

P. aeruginosa 5712 = assay: In vitro antibacterial activity (MIC); conditions: Pseudomonas aeruginosa; P. aeruginosa 5712; read-out: MIC
Method in brief: as §1

P. aeruginosa 6148B = assay: In vitro antibacterial activity (MIC); conditions: Pseudomonas aeruginosa, read-out: MIC
Method in brief: as §1

P. aeruginosa 8710 = assay: In vitro antibacterial activity (MIC); conditions: Pseudomonas aeruginosa; P. aeruginosa 8710; read-out: MIC
Method in brief: as §1

P. aeruginosa B = assay: In vitro antibacterial activity (MIC); conditions: Pseudomonas aeruginosa, read-out: MIC
Method in brief: as §1

P. aeruginosa POW 151 = assay: In vitro antibacterial activity (MIC); conditions: Pseudomonas aeruginosa, POW151
Method in brief: as §1

P. mirabilis 2 = assay: In vitro antibacterial activity (MIC); conditions: Proteus mirabilis, 2, P. mirabilis 2; read-out: MIC
Method in brief: as §1

P. mirabilis 503-1136 = assay: In vitro antibacterial activity (MIC); conditions: Proteus mirabilis, 5031136, P. mirabilis 503-1136; read-out: MIC
Method in brief: as §1

P. vulgaris 101 = assay: In vitro antibacterial activity (MIC); conditions: Proteus vulgaris, 101, P. vulgaris 101; read-out: MIC
Method in brief: as §1

P. vulgaris ATCC 6380 = assay: In vitro antibacterial activity (MIC); conditions: Proteus vulgaris
Method in brief: as §1

S. aureus Smith = assay: In vitro antibacterial activity (MIC); conditions: Staphylococcus aureus, S. aureus Smith; read-out: MIC
Method in brief: as §1

S. marcescens 5805 = assay: In vitro antibacterial activity (MIC)
Method in brief: as §1

S. marcescens S147 = assay: In vitro antibacterial activity (MIC); conditions: Serratia marcescens; S. marcescens S147; read-out: MIC
Method in brief: as §1

S. marcescens S1 = assay: In vitro antibacterial activity (MIC); conditions: Serratia marcescens
Method in brief: as §1

S. marcescens S3 = assay: In vitro antibacterial activity (MIC); conditions: Serratia marcescens; S. marcescens S3; read-out: MIC
Method in brief: as §1

S. marcescens S4 = assay: In vitro antibacterial activity (MIC); conditions: Serratia marcescens, S4, S. marcescens S4; read-out: MIC
Method in brief: as §1

S. marcescens S714 = assay: In vitro antibacterial activity (MIC); conditions: Serratia marcescens
Method in brief: as §1

S. pneumoniae 6301 = assay: In vitro antibacterial activity (MIC); conditions: Streptococcus pneumoniae, 6301, S. pneumoniae 6301; read-out: MIC
Method in brief: as §1

S. pneumoniae 6302 = assay: In vitro antibacterial activity (MIC); conditions: Streptococcus pneumoniae, 6302, S. pneumoniae 6302; read-out: MIC
Method in brief: as §1

S. pneumoniae SC = assay: In vitro antibacterial activity (MIC); conditions: Streptococcus pneumoniae, read-out: MIC
Method in brief: as §1

S. pyogenes 4 = assay: In vitro antibacterial activity (MIC); conditions: Streptococcus pyogenes, 4, S. pyogenes 4; read-out: MIC
Method in brief: as §1

S. pyogenes 503-782 = assay: In vitro antibacterial activity (MIC); conditions: Streptococcus pyogenes, 503782; S. pyogenes 503-782; read-out: MIC
Method in brief: as §1

S. schottmuelleri = assay: In vitro antibacterial activity (MIC); conditions: read-out: MIC
Method in brief: as §1

S. typhi P58A = assay: In vitro antibacterial activity (MIC); conditions: Salmonella enterica, TYPHI
Method in brief: as §1

S. aureus Giorgio = assay: In vitro antibacterial activity (MIC); conditions: Staphylococcus aureus, S. aureus Giorgio; read-out: MIC
Method in brief: as §1

Measured: MIC

CC1(C)S[C@@H]2[C@H](N=CN3CCC(CCC4=NCCN4)CC3)C(=O)N2[C@H]1C(=O)O [N, [2S-(2alpha,5alpha,6beta)]-6-[[[4-[4,5-dihydro-1H-imidazol-2-yl)ethyl]-1-piperidinyl]methylene]amino]-3,3-dimethyl-7-oxo-4-thia-1-azabicyclo[3.2.0]heptane-2-carboxylic acid hydrochloride]
0.125 µg/mL: E. cloacae 24 | E. cloacae 9295 | K. pneumoniae 35; Klebsiella pneumoniae, K. pneumoniae 35, read-out: MIC | P. mirabilis 2 | S. marcescens S714; S714, S. marcescens S714, read-out: MIC
0.062 µg/mL: E. cloacae 214 | E. cloacae 5699 | E. cloacae 9570A | K. pneumoniae 503-994 | P. aeruginosa B | S. marcescens S147 | S. marcescens S3
0.016 µg/mL: E. coli 387-1; Escherichia coli, 3871, E. coli 387-1, read-out: MIC | E. coli 4
2 µg/mL: S. marcescens S1; S1 | S. pneumoniae 6302
32 µg/mL: K. pneumoniae 4964; Klebsiella pneumoniae, 4964 | P. aeruginosa 6148B | P. aeruginosa 8710
8 µg/mL: E. aerogenes 83 | E. coli 5152; Escherichia coli, 5152 | S. aureus Smith
0.25 µg/mL: S. marcescens 5805; Serratia marcescens, 5805 | S. marcescens S4
0.031 µg/mL: E. coli 257; Escherichia coli, 257, E. coli 257, read-out: MIC | C. diversus CDC 1663-72 | C. freundii 8ASM | C. freundii CDC6 | E. coli 48 | P. vulgaris ATCC 6380; ATCC6380, P. vulgaris ATCC 6380, read-out: MIC | S. schottmuelleri | S. typhi P58A
1 µg/mL: S. pneumoniae 6301 | S. pneumoniae SC | S. pyogenes 4
64 µg/mL: P. aeruginosa 5712 | P. vulgaris 101 | S. pyogenes 503-782
4 µg/mL: E. aerogenes 503-478 | P. mirabilis 503-1136
> 128 µg/mL: K. pneumoniae 5096 | K. pneumoniae HE7 | P. aeruginosa POW 151
16 µg/mL: P. aeruginosa 503-56

CC1(C)S[C@@H]2[C@H](N=CN3CCCC(c4ncc[nH]4)C3)C(=O)N2[C@H]1C(=O)O (stereo partly drawn) [P, [2S-(2alpha,5alpha,6beta)]-6-[[[3-(1H-imidazol-2-yl)-1-piperidinyl]methylene]amino]-3,3-dimethyl-7-oxo-4-thia-1-azabicyclo[3.2.0]heptane-2-carboxylicacid hydrochloride]
> 128 µg/mL: E. aerogenes 503-478 | E. coli 5152; Escherichia coli, 5152, E. coli 5152, read-out: MIC | S. marcescens S4
1 µg/mL: S. pneumoniae 6301
64 µg/mL: K. pneumoniae 4964; Klebsiella pneumoniae, 4964, K. pneumoniae 4964, read-out: MIC | K. pneumoniae 5096 | P. mirabilis 503-1136 | P. vulgaris 101
8 µg/mL: E. aerogenes 83 | E. cloacae 214 | E. cloacae 24 | E. cloacae 5699 | E. cloacae 9295 | E. cloacae 9570A | K. pneumoniae 503-994 | P. mirabilis 2 | S. marcescens S147 | S. marcescens S1; S1, S. marcescens S1, read-out: MIC | S. marcescens S3
32 µg/mL: S. marcescens S714; S714
2 µg/mL: E. coli 257; Escherichia coli, 257 | C. diversus CDC 1663-72 | C. freundii 8ASM | E. coli 48 | E. coli 4 | S. aureus Smith | S. schottmuelleri | S. typhi P58A
4 µg/mL: C. freundii CDC6 | E. coli 387-1; Escherichia coli, 3871 | S. aureus Giorgio
128 µg/mL: K. pneumoniae HE7 | S. marcescens 5805; Serratia marcescens, 5805, S. marcescens 5805, read-out: MIC
16 µg/mL: K. pneumoniae 35; Klebsiella pneumoniae, 35, K. pneumoniae 35
0.5 µg/mL: P. vulgaris ATCC 6380; ATCC6380
